Our source for the TGI and GI50 values is PubChem BioAssay (NCI).

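96-well plates; 48 h exposure; 5 concentrations. Endpoints by linear interpolation between flanking doses. Not reached: highest tested concentration assigned. The concentration for 50% growth inhibition is given as GI50. TGI denotes the concentration required for complete inhibition of growth.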

Test systems include DU-145 prostate; HCC-2998 colon; MALME-3M melanoma; MDA-MB-231 breast; NCI-H522 lung; OVCAR-3 ovarian; OVCAR-4 ovarian; SN12C renal; TK-10 renal; UACC-62 melanoma.
Common to all, as to assay: inhibition of tumour cell growth, NCI panel, 48 h

As to `COC(=O)C1OC(O[C@H]2CC[C@]3(C)[C@H]4CC=C5[C@@H]6CC(C)(C)CC[C@]6(C(=O)OC6OCC(O)C(O)C6OC6OC(C)C(OC7OCC(OC8OCC(O)C(O)C8O)C(O)C7O)C(O)C6O)[C@H](O)C[C@@]5(C)[C@]4(C)CC[C@H]3C2(C)C)C(O)C(O)C1O` (stereo not given in full), the TGI in the assay with DU-145 prostate was determined as 16.9 µM; with HCC-2998 colon, 3.06 µM; in the assay with MALME-3M melanoma it was 14.5 µM; in the assay on MDA-MB-231 breast, 9.33 µM; with NCI-H522 lung, 7.76 µM; in the assay on OVCAR-3 ovarian, 20.9 µM. The TGI in the assay with OVCAR-4 ovarian amounted to 21.6 µM; in the assay on SN12C renal, 3.36 µM; with TK-10 renal, 22.5 µM; in the assay on UACC-62 melanoma, 10.6 µM.

Turning to `O=C1CC(Sc2nc3ccc(I)cc3c(=O)n2Cc2ccccc2)C(=O)NN1` (stereo not given), the TGI was found to be 34.8 µM in the assay with DU-145 prostate; 31.8 µM in the assay with HCC-2998 colon; 33.1 µM with MALME-3M melanoma; 29.3 µM in the assay with MDA-MB-231 breast; 4.26 µM with NCI-H522 lung; 31.2 µM with OVCAR-3 ovarian. In addition, the TGI in the assay with OVCAR-4 ovarian is 36.8 µM; in the assay with SN12C renal, 27.6 µM; in the assay on TK-10 renal, 30.5 µM; in the assay with UACC-62 melanoma, 29.3 µM.

Take `Cn1ccnc1Sc1ccc(C=Nc2ccc3nc(SCC(=O)NC4CCCCC4)sc3c2)cc1[N+](=O)[O-]`: the TGI is greater than 100 µM in the assay with DU-145 prostate; greater than 100 µM with HCC-2998 colon; greater than 100 µM in the assay on MALME-3M melanoma; 99.4 µM in the assay on MDA-MB-231 breast; greater than 100 µM with NCI-H522 lung; greater than 100 µM in the assay on OVCAR-3 ovarian. Further, the TGI was greater than 100 µM with OVCAR-4 ovarian, greater than 100 µM in the assay with SN12C renal, 32.2 µM with TK-10 renal and greater than 100 µM in the assay with UACC-62 melanoma.

`COC(=O)c1cc(C)ccc1CC(Cc1ccc(C)cc1)C(=O)OC` (stereo not given): the TGI is greater than 100 µM in the assay with DU-145 prostate; greater than 100 µM with HCC-2998 colon; 95.5 µM with MALME-3M melanoma; greater than 100 µM in the assay with MDA-MB-231 breast; greater than 100 µM with NCI-H522 lung; greater than 100 µM in the assay with OVCAR-3 ovarian. The TGI with OVCAR-4 ovarian, in the assay on SN12C renal, in the assay with TK-10 renal and in the assay on UACC-62 melanoma was greater than 100 µM throughout.

`c1ccc(C2=Nn3c(CCCCCCCCc4nnc5n4N=C(c4ccccc4)CS5)nnc3SC2)cc1`: the TGI in the assay with DU-145 prostate was greater than 100 µM; in the assay on HCC-2998 colon it was greater than 100 µM; in the assay with MALME-3M melanoma, greater than 89.6 µM; in the assay on MDA-MB-231 breast, 80.6 µM; in the assay with NCI-H522 lung, greater than 100 µM; in the assay with OVCAR-3 ovarian it was greater than 100 µM. Besides, the TGI was greater than 100 µM with OVCAR-4 ovarian, greater than 100 µM with SN12C renal, 79 µM with TK-10 renal and greater than 100 µM with UACC-62 melanoma.

For `Cc1ccc(S(=O)(=O)NC(=O)NNc2ccc(F)cc2)cc1`, the TGI with DU-145 prostate, with HCC-2998 colon, with MALME-3M melanoma, in the assay with MDA-MB-231 breast, in the assay on NCI-H522 lung and with OVCAR-3 ovarian was greater than 100 µM in each case. Moreover, the TGI with OVCAR-4 ovarian, with SN12C renal, in the assay on TK-10 renal and in the assay with UACC-62 melanoma was greater than 100 µM each time.

Turning to `O=C(O)c1ccc2c(c1)CC1(C2)Cc2cc3c(cc2C1=O)CCC3` (stereo not given), the TGI with DU-145 prostate, in the assay on HCC-2998 colon, in the assay on MALME-3M melanoma, in the assay with MDA-MB-231 breast, in the assay with NCI-H522 lung and in the assay on OVCAR-3 ovarian was greater than 100 µM throughout. In addition, the TGI with OVCAR-4 ovarian, with SN12C renal, with TK-10 renal and with UACC-62 melanoma was greater than 100 µM each time.

In the case of `O=C(Nc1ccc(-n2cc(-c3ccncc3)c(-c3ccc(O)c(Cl)c3)n2)cc1)Nc1cccc(Cl)c1Cl`, the GI50 is 12.8 µM in the assay with DU-145 prostate; 18.9 µM in the assay on HCC-2998 colon; 4.94 µM in the assay on MALME-3M melanoma; 1.52 µM in the assay with MDA-MB-231 breast; 4.03 µM in the assay with NCI-H522 lung; 6.67 µM in the assay with OVCAR-3 ovarian. Further, the GI50 with OVCAR-4 ovarian was 5.47 µM; in the assay with SN12C renal, 19.9 µM; in the assay with TK-10 renal, 6.52 µM; in the assay with UACC-62 melanoma, 9.79 µM. Besides, the TGI was greater than 32.5 µM in the assay on DU-145 prostate; greater than 32.5 µM in the assay on HCC-2998 colon; greater than 32.5 µM with MALME-3M melanoma; 10.3 µM with MDA-MB-231 breast; greater than 32.5 µM with NCI-H522 lung; greater than 32.5 µM in the assay with OVCAR-3 ovarian. The TGI with OVCAR-4 ovarian is greater than 32.5 µM; with SN12C renal it was greater than 32.5 µM; in the assay with TK-10 renal, 22.1 µM; in the assay with UACC-62 melanoma, greater than 32.5 µM.

As to `COc1ccc(N=Nc2c3c(c(O)c4ccccc24)CCC(C)(C)O3)cc1`, the TGI with DU-145 prostate was 71.8 µM; with HCC-2998 colon, 24.5 µM; in the assay on MALME-3M melanoma it was 40.6 µM; in the assay with MDA-MB-231 breast, 63.9 µM; with NCI-H522 lung, 33.5 µM; in the assay with OVCAR-3 ovarian, 33.2 µM. The TGI in the assay on OVCAR-4 ovarian was determined as 50.4 µM; in the assay on SN12C renal, 38.7 µM; with TK-10 renal, 65.8 µM; in the assay on UACC-62 melanoma it was 28.6 µM.

Turning to `Cc1cc2c(nn1)-c1ccccc1C2=O`, the TGI with DU-145 prostate, with HCC-2998 colon, in the assay on MALME-3M melanoma, in the assay on MDA-MB-231 breast, in the assay with NCI-H522 lung and in the assay on OVCAR-3 ovarian was greater than 10 µM throughout. Besides, the TGI in the assay with OVCAR-4 ovarian, in the assay on SN12C renal, with TK-10 renal and in the assay on UACC-62 melanoma was greater than 10 µM each time.
